Measurements from patent US7361659B2, “Pyrrazolo-pyrimidine derivatives” (Hoffmann-La Roche Inc., priority 2005, dated 2008).

Row | Compound | melting point [°C]
1 | NS(=O)(=O)c1cc(NC(=O)c2cnn3c(C(F)F)cc(-c4ccc(C(F)(F)F)cc4)nc23)c(Cl)s1 [Example 1, 7-Difluoromethyl-5-(4-trifluoromethyl-phenyl)-pyrazolo[1,5-a]pyrimidine-3-carboxylic-acid (2-chloro-5-sulfamoyl-thiophen-3-yl)-amide] | 298
2 | NS(=O)(=O)c1nnc(NC(=O)c2cnn3c(C(F)(F)F)cc(-c4ccc(C(F)(F)F)cc4)nc23)s1 [Example 4, 7-Trifluoromethyl-5-(4-trifluoromethyl-phenyl)-pyrazolo[1,5-a]pyrimidine-3-carboxylic acid (5-sulfamoyl-[1,3,4]thiadiazol-2-yl)-amide] | 280
3 | CC(C)(CO)NS(=O)(=O)c1cc(NC(=O)c2cnn3c(C(F)F)cc(-c4ccc(C(F)(F)F)cc4)nc23)c(Cl)s1 [Example 5, 7-Difluoromethyl-5-(4-trifluoromethyl-phenyl)-pyrazolo[1,5-a]pyrimidine-3-carboxylic acid [2-chloro-5-(2-hydroxy-1,1-dimethyl-ethylsulfamoyl)-thiophen-3-yl]-amide] | 233
4 | Cc1nc(NC(=O)c2cnn3c(C(F)F)cc(-c4ccc(C(F)(F)F)cc4)nc23)sc1S(N)(=O)=O [Example 7, 7-Difluoromethyl-5-(4-trifluoromethyl-phenyl)-pyrazolo[1,5-a]pyrimidine-3-carboxylic acid (4-methyl-5-sulfamoyl-thiazol-2-yl)-amide] | 284
5 | NS(=O)(=O)c1cc(NC(=O)c2cnn3c(C(F)(F)F)cc(-c4ccc(Cl)cc4)nc23)c(Cl)s1 [Example 9, 5-(4-Chloro-phenyl)-7-trifluoromethyl-pyrazolo[1,5-a]pyrimidine-3-carboxylic acid (2-chloro-5-sulfamoyl-thiophen-3-yl)-amide] | 329
6 | CCOc1cc(-c2cc(C(F)(F)F)n3ncc(C(=O)Nc4cc(S(N)(=O)=O)sc4Cl)c3n2)ccc1C(F)(F)F [Example 10, 5-(3-Ethoxy-4-trifluoromethyl-phenyl)-7-trifluoromethyl-pyrazolo[1,5-a]pyrimidine-3-carboxylic acid (2-chloro-5-sulfamoyl-thiophen-3-yl)-amide] | 281
7 | Cc1cc(-c2cc(C(F)(F)F)n3ncc(C(=O)Nc4cc(S(N)(=O)=O)sc4Cl)c3n2)ccc1C(F)(F)F [Example 11, 5-(3-Methyl-4-trifluoromethyl-phenyl)-7-trifluoromethyl-pyrazolo[1,5-a]pyrimidine-3-carboxylic acid (2-chloro-5-sulfamoyl-thiophen-3-yl)-amide] | 283
8 | CC(C)(CO)NS(=O)(=O)c1cc(NC(=O)c2cnn3c(C(F)(F)F)cc(-c4ccc(Cl)cc4)nc23)c(Cl)s1 [Example 12, 5-(4-Chloro-phenyl)-7-trifluoromethyl-pyrazolo[1,5-a]pyrimidine-3-carboxylic acid [2-chloro-5-(2-hydroxy-1,1-dimethyl-ethylsulfamoyl)-thiophen-3-yl]-amide] | 272
9 | Cc1nc(NC(=O)c2cnn3c(C(F)(F)F)cc(-c4ccc(C(F)(F)F)cc4)nc23)sc1S(=O)(=O)NC(C)(C)CO [Example 13, 7-Trifluoromethyl-5-(4-trifluoromethyl-phenyl)-pyrazolo[1,5-a]pyrimidine-3-carboxylic acid [5-(2-hydroxy-1,1-dimethyl-ethylsulfamoyl)-4-methyl-thiazol-2-yl]-amide] | 257
10 | Cc1nc(NC(=O)c2cnn3c(C(F)F)cc(-c4ccc(C(F)(F)F)cc4)nc23)sc1S(=O)(=O)NC(C)(C)CO [Example 14, 7-Difluoromethyl-5-(4-trifluoromethyl-phenyl)-pyrazolo[1,5-a]pyrimidine-3-carboxylic acid [5-(2-hydroxy-1,1-dimethyl-ethylsulfamoyl)-4-methyl-thiazol-2-yl]-amide] | 268
11 | CCOc1cc(-c2cc(C(F)(F)F)n3ncc(C(=O)Nc4cc(S(=O)(=O)NC(C)(C)CO)sc4Cl)c3n2)ccc1C(F)(F)F [Example 15, 5-(3-Ethoxy-4-trifluoromethyl-phenyl)-7-trifluoromethyl-pyrazolo[1,5-a]pyrimidine-3-carboxylic acid [2-chloro-5-(2-hydroxy-1,1-dimethyl-ethylsulfamoyl)-thiophen-3-yl]-amide] | 234
12 | Cc1cc(-c2cc(C(F)(F)F)n3ncc(C(=O)Nc4cc(S(=O)(=O)NC(C)(C)CO)sc4Cl)c3n2)ccc1C(F)(F)F [Example 16, 5-(3-Methyl-4-trifluoromethyl-phenyl)-7-trifluoromethyl-pyrazolo[1,5-a]pyrimidine-3-carboxylic acid [2-chloro-5-(2-hydroxy-1,1-dimethyl-ethylsulfamoyl)-thiophen-3-yl]-amide] | 207
13 | CC(C)(CO)NS(=O)(=O)c1cc(NC(=O)c2cnn3c(C(F)(F)F)cc(-c4ccc(C(F)(F)F)c(OCC(F)(F)F)c4)nc23)c(Cl)s1 [Example 17, 5-[3-(2,2,2-Trifluoro-ethoxy)-4-trifluoromethyl-phenyl]-7-trifluoromethyl-pyrazolo[1,5-a]pyrimidine-3-carboxylic acid [2-chloro-5-(2-hydroxy-1,1-dimethyl-ethylsulfamoyl)-thiophen-3-yl]-amide] | 264

Now from value to compound:

Row | melting point [°C] | Compound
14 | 274 | O=C(Nc1cc(S(=O)(=O)N2CCC(O)C2)sc1Cl)c1cnn2c(C(F)F)cc(-c3ccc(C(F)(F)F)cc3)nc12 (racemic) [Example 66, 7-Difluoromethyl-5-(4-trifluoromethyl-phenyl)-pyrazolo[1,5-a]pyrimidine-3-carboxylic acid [(RS)-2-chloro-5-(3-hydroxy-pyrrolidine-1-sulfonyl)-thiophen-3-yl]-amide]
15 | 270 | O=C(Nc1cc(S(=O)(=O)N2CCC(O)C2)sc1Cl)c1cnn2c(C(F)(F)F)cc(-c3ccc(C(F)(F)F)cc3)nc12 (racemic) [Example 67, 7-Trifluoromethyl-5-(4-trifluoromethyl-phenyl)-pyrazolo[1,5-a]pyrimidine-3-carboxylic acid [(RS)-2-chloro-5-(3-hydroxy-pyrrolidine-1-sulfonyl)-thiophen-3-yl]-amide]
16 | 300 | Cc1nc(NC(=O)c2cnn3c(C(F)(F)F)cc(-c4ccc(C(F)(F)F)cc4)nc23)sc1S(=O)(=O)N1CCC(O)C1 (racemic) [Example 76, 7-Trifluoromethyl-5-(4-trifluoromethyl-phenyl)-pyrazolo[1,5-a]pyrimidine-3-carboxylic acid [(RS)-5-(3-hydroxy-pyrrolidine-1-sulfonyl)-4-methyl-thiazol-2-yl]-amide]
17 | 305 | Cc1nc(NC(=O)c2cnn3c(C(F)(F)F)cc(-c4ccc(Cl)cc4)nc23)sc1S(N)(=O)=O [Example 19, 5-(4-Chloro-phenyl)-7-trifluoromethyl-pyrazolo[1,5-a]pyrimidine-3-carboxylic acid (4-methyl-5-sulfamoyl-thiazol-2-yl)-amide]
18 | 300 | CCOc1cc(-c2cc(C(F)(F)F)n3ncc(C(=O)Nc4nc(C)c(S(N)(=O)=O)s4)c3n2)ccc1C(F)(F)F [Example 20, 5-(3-Ethoxy-4-trifluoromethyl-phenyl)-7-trifluoromethyl-pyrazolo[1,5-a]pyrimidine-3-carboxylic acid (4-methyl-5-sulfamoyl-thiazol-2-yl)-amide]
19 | 309 | Cc1cc(-c2cc(C(F)(F)F)n3ncc(C(=O)Nc4nc(C)c(S(N)(=O)=O)s4)c3n2)ccc1C(F)(F)F [Example 21, 5-(3-Methyl-4-trifluoromethyl-phenyl)-7-trifluoromethyl-pyrazolo[1,5-a]pyrimidine-3-carboxylic acid (4-methyl-5-sulfamoyl-thiazol-2-yl)-amide]
20 | 276 | CCOc1cc(-c2cc(C(F)(F)F)n3ncc(C(=O)Nc4nc(C)c(S(=O)(=O)NC(C)(C)CO)s4)c3n2)ccc1C(F)(F)F [Example 23, 5-(3-Ethoxy-4-trifluoromethyl-phenyl)-7-trifluoromethyl-pyrazolo[1,5-a]pyrimidine-3-carboxylic acid [5-(2-hydroxy-1,1-dimethyl-ethylsulfamoyl)-4-methyl-thiazol-2-yl]-amide]
21 | 299 | Cc1nc(NC(=O)c2cnn3c(C(F)(F)F)cc(-c4ccc(C(F)(F)F)c(Cl)c4)nc23)sc1S(N)(=O)=O [Example 25, 5-(3-Chloro-4-trifluoromethyl-phenyl)-7-trifluoromethyl-pyrazolo[1,5-a]pyrimidine-3-carboxylic acid (4-methyl-5-sulfamoyl-thiazol-2-yl)-amide]
22 | 307 | Cc1nc(NC(=O)c2cnn3c(C(F)(F)F)cc(-c4ccc(Cl)c(Cl)c4)nc23)sc1S(N)(=O)=O [Example 26, 5-(3,4-Dichloro-phenyl)-7-trifluoromethyl-pyrazolo[1,5-a]pyrimidine-3-carboxylic acid (4-methyl-5-sulfamoyl-thiazol-2-yl)-amide]
23 | 264 | Cc1nc(NC(=O)c2cnn3c(C(F)(F)F)cc(-c4ccc(C(F)(F)F)c(OCC(F)(F)F)c4)nc23)sc1S(N)(=O)=O [Example 27, 5-[3-(2,2,2-Trifluoro-ethoxy)-4-trifluoromethyl-phenyl]-7-trifluoromethyl-pyrazolo[1,5-a]pyrimidine-3-carboxylic acid (4-methyl-5-sulfamoyl-thiazol-2-yl)-amide]
24 | 241 | O=C(Nc1cc(S(=O)(=O)NC(CO)CO)sc1Cl)c1cnn2c(C(F)F)cc(-c3ccc(C(F)(F)F)cc3)nc12 [Example 28, 7-Difluoromethyl-5-(4-trifluoromethyl-phenyl)-pyrazolo[1,5-a]pyrimidine-3-carboxylic acid [2-chloro-5-(2-hydroxy-1-hydroxymethyl-ethylsulfamoyl)-thiophen-3-yl]-amide]
25 | 225 | O=C(Nc1cc(S(=O)(=O)NC(CO)CO)sc1Cl)c1cnn2c(C(F)(F)F)cc(-c3ccc(C(F)(F)F)cc3)nc12 [Example 29, 7-Trifluoromethyl-5-(4-trifluoromethyl-phenyl)-pyrazolo[1,5-a]pyrimidine-3-carboxylic acid [2-chloro-5-(2-hydroxy-1-hydroxymethyl-ethylsulfamoyl)-thiophen-3-yl]-amide]
